Patent US20110263552A1, “MODULATION OF SIDE EFFECT PROFILE OF 5-ALPHA REDUCTASE INHIBITOR THERAPY” (SOV Therapeutics, priority 2009, published 2011)
Marks after values point to notes of the source that are not given here.

What was measured:
[1] = Testosterone undecanoate (TU) solubility in various solubilizers
Male Sprague-Dawley rats = experiment: Organ weights in rats after 14 days of dosing (Example 9); type: in vivo
Description: The organ weights obtained from Bramson et al. are given in the right-hand column of the table for reference (Bramson, H. N., Journal of Pharmacology and Experimental Therapeutics, 1496-1502, (1997).)

[2] = oral 200 mg twice daily, cited from earlier work
[3] = tested on: absorption of cholesterol; settings: ingestion of 1 g; meal containing 500 mg of cholesterol; cited from earlier work
[4] = male Sprague-Dawley rats, 80 mg/kg/day TU, without or with 1 mg/kg/day D

In the case of CCCCCCCCCCC(=O)O[C@H]1CC[C@H]2[C@@H]3CCC4=CC(=O)CC[C@]4(C)[C@H]3CC[C@]12C [TU, testosterone undecanoate], the “TU Solubility” value ([1]; vehicle Acconon CO-7, at 37 C.) is reported as 59 mg/g, the “TU Solubility” value ([1]; vehicle Canola oil, at 37 C.) is reported as 167 mg/g and the “TU Solubility” value ([1]; vehicle Capmul MCM, determined at 25° C.) is reported as >100* mg/g. For the same compound, the “TU Solubility” value ([1]; vehicle Capmul PG-8, determined at 25° C.) was >100* mg/g, the “TU Solubility” value ([1]; vehicle Caprylic acid, at 37 C.) was 595 mg/g and the “TU Solubility” value ([1]; vehicle Castor oil, at 37 C.) was 218 mg/g. The “TU Solubility” value ([1]; vehicle Corn oil, at 37 C.) was 243 mg/g, the “TU Solubility” value ([1]; vehicle Cremophor RH40, determined at 25° C.) was 88* mg/g and the “TU Solubility” value ([1]; vehicle Crodamol EO (ethyl oleate), at 37 C.) was 221 mg/g. The “TU Solubility” value ([1]; vehicle Crodamol IPM (isopropyl myristate), at 37 C.) was 295 mg/g, the “TU Solubility” value ([1]; vehicle Crodamol IPP (isopropyl palmitate), at 37 C.) was 215 mg/g and the “TU Solubility” value ([1]; vehicle Ethyl linoleate, at 37 C.) was 230 mg/g. The “TU Solubility” value ([1]; vehicle Glyceryl monooleate or GMO (Peceol (Gattefosse)), at 37 C.) was 323 mg/g, the “TU Solubility” value ([1]; vehicle Glyceryl ricinoleate (Softigen 701), at 37 C.) was 261 mg/g and the “TU Solubility” value ([1]; vehicle Glyceryl trioleate (Capmul GTO), at 37 C.) was 154 mg/g. The “TU Solubility” value ([1]; vehicle Incromega E7010 (omega-3), at 37 C.) was 247 mg/g, the “TU Solubility” value ([1]; vehicle Incromega TG7010 SR (omega-3 high purity), at 37 C.) was 225 mg/g and the “TU Solubility” value ([1]; vehicle Labrafil M 2125 CS, at 37 C.) was 257 mg/g. For the same compound, the “TU Solubility” value ([1]; vehicle Labrasol, determined at 25° C.) was 43* mg/g, the “TU Solubility” value ([1]; vehicle Linoleic acid, at 37 C.) was 391 mg/g and the “TU Solubility” value ([1]; vehicle Linolenic acid, at 37 C.) was 162 mg/g. For the same compound, the “TU Solubility” value ([1]; vehicle Maisine 35-1, at 37 C.) was 93 mg/g, the “TU Solubility” value ([1]; vehicle Miglyol 812, determined at 25° C.) was >100* mg/g and the “TU Solubility” value ([1]; vehicle N-methyl pyrolidone, at 37 C.) was >500 mg/g. For the same compound, the “TU Solubility” value ([1]; vehicle Oleic acid, at 37 C.) was 405 mg/g, the “TU Solubility” value ([1]; vehicle Omega-3 ethyl esters w/antioxidant (AMRI), at 37 C.) was 261 mg/g and the “TU Solubility” value ([1]; vehicle Omega-3 ethyl esters w/o antioxidant (AMRI), at 37 C.) was 360 mg/g. For the same compound, the “TU Solubility” value ([1]; vehicle Polyglyceryl-3-diisostearate (Plurol diisosterique), at 37 C.) was 173 mg/g, the “TU Solubility” value ([1]; vehicle Polyglyceryl-3-dioleate (Plurol oleique CC497), at 37 C.) was 193 mg/g and the “TU Solubility” value ([1]; vehicle Polyglyceryl-6-dioleate (Caprol MPGO, Abitec), at 37 C.) was 184 mg/g. For the same compound, the “TU Solubility” value ([1]; vehicle Polysorbate 80 (Tween 80), determined at 25° C.) was 39* mg/g, the “TU Solubility” value ([1]; vehicle Polysorbate 85, at 37 C.) was 125 mg/g and the “TU Solubility” value ([1]; vehicle Propylene glycol monocaprylate (Capryol 90, Gattefosse), at 37 C.) was 486 mg/g. For the same compound, the “TU Solubility” value ([1]; vehicle Propylene glycol monolaurate, determined at 25° C.) was >200* mg/g, the “TU Solubility” value ([1]; vehicle Rapeseed oil, at 37 C.) was 123 mg/g and the “TU Solubility” value ([1]; vehicle Ricinoleic acid, at 37 C.) was 244 mg/g. For the same compound, the “TU Solubility” value ([1]; vehicle Safflower oil, at 37 C.) was 124 mg/g, the “TU Solubility” value ([1]; vehicle Span 80, at 37 C.) was 289 mg/g and the “TU Solubility” value ([1]; vehicle Sunflower oil, at 37 C.) was 105 mg/g. For the same compound, the “TU Solubility” value ([1]; vehicle Transcutol HP, at 37 C.) was 180 mg/g, the “TU Solubility” value ([1]; vehicle dl-alpha-tocopherol, at 37 C.) was 527 mg/g and the “Body weight, Mean” value (Male Sprague-Dawley rats; [4]) was 284 g. For the same compound, the “Seminal vesicles weight, Mean” value (Male Sprague-Dawley rats; [4]) was 0.902 grams, the “Testicles weight, Mean” value (Male Sprague-Dawley rats; [4]) was 3.374 grams and the “Ventral prostate weight, Mean” value (Male Sprague-Dawley rats; [4]) was 0.22 grams. For the same compound, the “Difference in organ weight versus vehicle-only” value (Male Sprague-Dawley rats; rats, any organ measured) was “No significant differences in weight”.

For C[C@]12CC[C@H]3[C@@H](CCC4=CC(=O)CC[C@@]43C)[C@@H]1CC[C@@H]2O [micronized testosterone, testosterone], the “time at desired level of serum testosterone for each peak” value ([2]; Daggett et al.) is given as “about 4 hours” and the “time of total serum testosterone within the normal range” value ([2]; Føgh et al.) is given as “greater than 12 hours”.

In the case of CC[C@H](CC[C@@H](C)[C@H]1CC[C@H]2[C@@H]3CC=C4C[C@@H](O)CC[C@]4(C)[C@H]3CC[C@]12C)C(C)C [β-sitosterol], the “reduction of absorption of cholesterol” value [3] is listed as 42%.
